From patent US20250357519A1, “APPLICATIONS OF O2-INSENSITIVE FORMATE DEHYDROGENASE” (UNIVERSITY OF MARYLAND, BALTIMORE, priority 2022, published 2025)
Where two headings read alike, the source gives them in different places.

Legend:
[1] = target: T1, Desulfovibrio vulgaris Hildenborough (DvH) FDH2, recombinant Strep-tag II-tagged (FDH2^Rec), large subunit DVU2482 SEQ ID NO: 31, small subunit DVU2481 SEQ ID N (Nitratidesulfovibrio vulgaris, UniProt Q728X0); test: Benzyl viologen (BV) assay of formate oxidation
T1 sequence (Q728X0 36-1003): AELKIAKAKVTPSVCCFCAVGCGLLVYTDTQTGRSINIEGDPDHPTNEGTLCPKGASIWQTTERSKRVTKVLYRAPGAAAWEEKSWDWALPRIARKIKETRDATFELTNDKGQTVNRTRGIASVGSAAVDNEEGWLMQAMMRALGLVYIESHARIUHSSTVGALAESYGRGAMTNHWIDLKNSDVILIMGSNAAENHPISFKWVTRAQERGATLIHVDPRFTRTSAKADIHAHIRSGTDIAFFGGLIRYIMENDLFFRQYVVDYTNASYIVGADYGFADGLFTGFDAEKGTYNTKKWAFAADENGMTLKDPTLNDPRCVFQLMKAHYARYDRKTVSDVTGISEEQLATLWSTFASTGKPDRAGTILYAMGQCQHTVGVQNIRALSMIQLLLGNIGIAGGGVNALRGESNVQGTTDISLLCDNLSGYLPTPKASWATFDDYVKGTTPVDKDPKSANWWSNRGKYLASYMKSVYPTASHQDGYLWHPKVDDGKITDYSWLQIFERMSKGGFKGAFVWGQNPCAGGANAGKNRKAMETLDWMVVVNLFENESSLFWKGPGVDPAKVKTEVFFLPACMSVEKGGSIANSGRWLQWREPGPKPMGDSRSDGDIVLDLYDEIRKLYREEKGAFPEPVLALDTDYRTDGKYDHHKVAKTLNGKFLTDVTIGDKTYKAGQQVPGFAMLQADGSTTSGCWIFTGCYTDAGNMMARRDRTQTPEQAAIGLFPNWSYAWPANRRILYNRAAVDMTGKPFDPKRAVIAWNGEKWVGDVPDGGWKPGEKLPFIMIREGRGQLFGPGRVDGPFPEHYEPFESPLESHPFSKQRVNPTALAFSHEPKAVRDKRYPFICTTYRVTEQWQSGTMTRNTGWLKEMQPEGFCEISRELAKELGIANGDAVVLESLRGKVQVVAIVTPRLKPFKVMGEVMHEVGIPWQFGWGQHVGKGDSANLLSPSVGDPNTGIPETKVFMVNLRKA
T1 sequence (Q728X1 1-260 partner): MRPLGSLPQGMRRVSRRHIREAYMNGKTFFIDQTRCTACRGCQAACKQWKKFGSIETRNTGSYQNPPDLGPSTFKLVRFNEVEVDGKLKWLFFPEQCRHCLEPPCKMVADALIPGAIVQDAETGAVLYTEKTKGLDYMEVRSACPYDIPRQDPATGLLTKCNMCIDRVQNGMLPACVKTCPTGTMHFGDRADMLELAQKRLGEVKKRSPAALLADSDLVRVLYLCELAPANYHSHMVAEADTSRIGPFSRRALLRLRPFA

[2] = system: Desulfovibrio vulgaris Hildenborough (DvH) Mo-FDH3, wild-type natively-purified (Mo-FDH3^WT); conditions: pH 7.6, RT, 2 mM BV, 0.25 nM enzyme; Da Silva et al (2011); cited from earlier work
[3] = system: Desulfovibrio gigas (Dg) W-FDH1, wild-type natively-purified (W-FDH1^WT); conditions: pH 8.0, 37 °C, 7.5 mM BV, 35 nM enzyme; Mota (2011); cited from earlier work
[4] = system: Desulfovibrio desulfuricans (Dd) Mo-FDH3, wild-type natively-purified (Mo-FDH3^WT); conditions: cited from earlier work
[5] = system: Desulfovibrio alaskensis (Da) W-FDH1, wild-type natively-purified (W-FDH1^WT); conditions: pH 8.0, 37 °C, 7.5 mM BV, 35 nM enzyme; Mota (2011); cited from earlier work
[6] = pH 7.6, 37 °C, 7.5 mM BV, 35 nM enzyme, Rivas et al (2007)
[7] = pH 8.0, 22 °C, 5 mM BV, 1 nM enzyme, Maia et al (2016)
[8] = pH 8.0, 37 °C, 7.5 mM BV, 35 nM enzyme, Mota (2011)

## O=CO [formate]
[1]; 2 mM BV (anaerobic), full progress curve global fit
  kcat: 47 ± 2 s⁻¹
[1]; BV (2 mM), anaerobic, initial velocities, 3 replicates, pH 8.0, 25 °C
  kcat: 68 ± 5 s⁻¹
[1]; BV (20 mM), anaerobic, initial velocities, 3 replicates, pH 8.0, 25 °C
  kcat: 111 ± 16 s⁻¹
[2]
  Km: 8 µM
  kcat: 262 s⁻¹
[3]
  Km: 51 µM
  kcat: 174 s⁻¹
[4]; [6]
  Km: 65 ± 8 µM
  kcat: 357 ± 18 s⁻¹
[4]; [7]
  Km: 57 µM
  kcat: 543 s⁻¹
[4]; [8]
  Km: 64 µM
  kcat: 347 s⁻¹
[5]
  Km: 10 µM
  kcat: 241 s⁻¹
